Measurements taken from US11304963B2, “Methods of medical treatment with SUR1-TRPM4 channel inhibitors” (BIOGEN CHESAPEAKE LLC, priority 2016, dated 2022).

How the values were obtained:
[1] = system: cerebral edema-related side effects; assay: Clinical trial of glyburide in patients undergoing CAR-T therapy, surgical excision of a brain tumor, and/or diagnosed with cerebral edema; type: in vivo, human; details: 0.5-3.0 mg/day
Protocol: (§1) In one arm, glyburide is administered as a bolus followed by continuous infusion.
(§2) In a second arm, glyburide is administered via a transdermal patch or gel.
(§3) In a third arm, glyburide is administered via injection, e.g., intravenous infusion.
(§4) In a fourth arm, glyburide is administered orally.
The study duration is days up to weeks.
Plasma levels of glyburide are determined daily.
The control group is matched for age, gender, and pre-operative stage.
(§5) Each patient is monitored via blood sampling and MRI. A diagnostic contrast-enhanced MRI of the brain is performed prior to inclusion in the study.
(§6) The following comparisons are made:
(§7) Occurrence of one or more cerebral edema-related side effects: • Headache • Neck pain or stiffness • Nausea or vomiting • Dizziness • Irregular breathing • Vision loss or changes • Memory loss • Inability to walk • Difficulty speaking • Stupor • Seizures • Loss of consciousness

[2] = system: cerebral edema-related side effects; assay: Clinical trial of glyburide in patients with brain tumors or metastasis undergoing radiation therapy; type: in vivo, human; details: 0.5-3.0 mg/day
Protocol: as §1, §2, §3, §4
The study duration is weeks to months.
Plasma levels of glyburide are determined weekly.
The control group is matched for age, gender, and pre-radiation therapy stage.
as §5, §6, §7

[3] = system: migraine; assay: Clinical trial of glyburide for the prevention of migraine; type: in vivo, human; details: patients with a history of migraine; after 12 weeks of treatment; 0.5-3.0 mg/day
Protocol: This is a randomized, double-blind, placebo-controlled, parallel Group, dose-ranging study to investigate the efficacy, safety and tolerability of glyburide for the prevention of migraine.
as §1, §2, §3, §4
The study duration is several days up to one week.
Number of migraine headache days during weeks 9-12 of the treatment period.
Change in Scores From Completeness of Response Survey (CORS) (Time Frame: Visit 1 (screening) and Visit 2 (study completion following 2-month treatment period)).
CORS scores for Pain (0-4), Associated Symptoms (0-4), Limbic/Affective Symptoms (0-5), and Speed of Return to Functionality (1-5), represent outcome measures that are relevant to patients. Higher scores represent better treatment efficacy.
The analysis compares CORS scores for usual treatment (pre-study) versus glyburide (study medication).

[4] = Plasma pharmacokinetics of glyburide, bolus injection followed by 72 hours continuous infusion, healthy adult subjects; details: for Metabolite exposure versus administered dose of RP-1127: 0.4 mg/day vs 3.0 mg/day; for Metabolite level as share of the glyburide steady-state concentration: on average; for Average plasma metabolite concentration: through 72.5 hours after the initial bolus injection
Protocol: The two groups are referred to as the 0.4 mg/day group and the 3.0 mg/day group, respectively.

[5] = system: subjects with LHI; assay: Mortality study in 77 subjects with LHI given Cirara and/or tPA; type: in vivo, human; details: Group 1: tPA and a placebo; 22 subjects with LHI; tPA within 4.5 hours of stroke onset
Protocol: As used herein, the term “placebo” refers to an ostensibly pharmaceutical formulation with no pharmaceutically active agent, or lacks the particular pharmaceutical agent of interest in a given study. In the examples disclosed herein, the placebo is lacking the SUR1-TRPM4 channel inhibitor. As used herein, the term “Cirara” refers to a commercially available intravenous formulation of glyburide. In this example, tPA was administered in accordance with current clinical guidelines for managing ischemic stroke within 4.5 hours of stroke onset (Jauch et al. 2013).
The adverse outcome examined in the study was death. This was for exemplary purposes only and is not intended to be limiting.

Time plasma metabolite levels first detected after the initial bolus RP-1127 IV injection ([4]; 0.4 mg/day dose group) [h]	Time plasma metabolite levels first detected after the initial bolus RP-1127 IV injection ([4]; 3.0 mg/day dose group) [h]	Metabolite level as share of the glyburide steady-state concentration [4] [%]	Average plasma metabolite concentration ([4]; 0.4 mg/day dose group) [ng/mL]	Average plasma metabolite concentration ([4]; 3.0 mg/day dose group) [ng/mL]	Molecule	Cerebral edema-related side effects compared with the control group [1]	Cerebral edema-related side effects compared with the control group [2]	Migraine outcome measures compared with the placebo group [3]	Metabolite exposure versus administered dose of RP-1127 [4]	Mortality Rate [5] [%]
					COc1ccc(Cl)cc1C(=O)NCCc1ccc(S(=O)(=O)NC(=O)NC2CCCCC2)cc1 [Glyburide, glyburide]	significantly reduced or inhibited	significantly reduced or inhibited	significantly improved		
1	0.167	18			COc1ccc(Cl)cc1C(=O)NCCc1ccc(S(=O)(=O)NC(=O)NC2CCC(O)CC2)cc1 (centres unmarked) [M1]				approximately proportional to the administered dose	
2	0.333	6	≤ 0.19	≤ 1.4	COc1ccc(Cl)cc1C(=O)NCCc1ccc(S(=O)(=O)NC(=O)NC2CCCC(O)C2)cc1 (centres unmarked) [M2]				approximately proportional to the administered dose	
					tPA: Tissue plasminogen activator, a class of strong blood clot dissolving medicines					41
